pIC50: −log10 of the molar value. Where a name gives a salt, the structure may show the parent alone. Read-outs that look alike come from different tables or passages of the source.
Target: full-length human RORγt (Homo sapiens (Human), UniProt P51449)
Assay: RORγt (full-length human) reporter assay, conditions A or B, HEK293T cells
Type: cell-based
Conditions: for inhibition at 1 µM: 1 μM compound concentration (footnote ***); for inhibition at 2 µM: 2 μM compound concentration; for pIC50: RORγt (FL) Reporter Assay A or B, IC50, HEK293T cells
Description: RORγt (Full-Length Human) Reporter Assay:
(§1) HEK293T cells were plated at 35,000 per well in 96-well plate in medium of DMEM with 10% FBS. […] After overnight (16 to 20 hours) incubation, media were removed and cells were lysed with 50 L Glo Lysis Buffer (Promega) for 10-15 minutes followed by 10 minute incubation with 50 μL Dual Glo reagent (Promega) at room temperature. Firefly luciferase luminescence was measured using a BMG Pherastar plate reader. To each well, 50 μL Stop and Glo reagent was added and incubated for 10 minutes at room temperature. Renilla luminescence was measured using a BMG Pherastar plate reader. To calculate the effect of compounds on RORγt activity, firefly values were normalized against values of DMSO only and values of reference compound at saturating concentration, then further normalized against Renilla signals. IC50s were generated by plotting final Renilla normalized data against compound concentration and percent inhibition was calculated against DMSO control.
as §1, with “at 8750 cells” for “at 35,000”, “in 384-well” for “in 96-well”, “with 20” for “with 50”, “well, 20” for “well, 50”

[1] = HEK-293T, read-out: RORγt (FL) Reporter Assay A or B, % inhibition
[2] = HEK-293T, 3 μM compound concentration (footnote *), read-out: RORγt (FL) Reporter Assay A or B, % inhibition

Chain of full-length human RORγt (P51449 other isoform, or with tags, fused parts or gaps): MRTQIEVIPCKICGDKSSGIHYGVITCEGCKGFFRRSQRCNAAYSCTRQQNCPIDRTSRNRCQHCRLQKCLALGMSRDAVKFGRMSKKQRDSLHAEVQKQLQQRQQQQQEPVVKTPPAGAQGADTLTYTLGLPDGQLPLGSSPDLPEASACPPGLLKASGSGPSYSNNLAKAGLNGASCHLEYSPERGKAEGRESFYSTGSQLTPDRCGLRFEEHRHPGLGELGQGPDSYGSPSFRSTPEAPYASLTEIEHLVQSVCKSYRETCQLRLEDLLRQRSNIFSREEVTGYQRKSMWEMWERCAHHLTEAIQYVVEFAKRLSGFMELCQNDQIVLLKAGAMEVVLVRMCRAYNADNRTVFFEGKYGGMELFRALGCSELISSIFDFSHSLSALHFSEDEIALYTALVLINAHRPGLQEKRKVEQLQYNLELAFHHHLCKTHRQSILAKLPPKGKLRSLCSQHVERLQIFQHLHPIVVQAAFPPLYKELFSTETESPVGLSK

CCn1nc(C(=O)NC[C@]2(O)CC[C@@H](S(C)(=O)=O)CC2)c(Cl)c1-c1ccc(C(O)C(C)(C)C(F)(F)F)cc1OC(F)F (some centres unmarked) [Example 106, 4-Chloro-5-(2-(difluoromethoxy)-4-(3,3,3-trifluoro-1-hydroxy-2,2-dimethylpropyl)phenyl)-1-ethyl-N-(((1s,4s)-1-hydroxy-4-(methylsulfonyl)cyclohexyl)methyl)-1H-pyrazole-3-carboxamide]
inhibition at 1 µM [1]: 115%

[2H]C([2H])([2H])Oc1cc(CC(C)(C)C(F)(F)F)ccc1-c1c(Cl)c(C(=O)NC[C@H]2CC[C@H](S(C)(=O)=O)CC2)nn1CC [Example 193, 4-Chloro-1-ethyl-5-(2-(methoxy-d3)-4-(3,3,3-trifluoro-2,2-dimethylpropyl)phenyl)-N-(((1r,4r)-4-(methylsulfonyl)cyclohexyl)methyl)-1H-pyrazole-3-carboxamide]
inhibition at 0.67 µM (HEK-293T, 0.67 μM compound concentration (footnote ****), read-out: RORγt (FL) Reporter Assay A or B, % inhibition): 93%

CCn1nc(C(=O)NC[C@]2(O)CC[C@@H](S(C)(=O)=O)CC2)c(Cl)c1-c1ccc(CCC(F)(F)F)cc1C(F)(F)F [Example 170, 4-Chloro-1-ethyl-N-(((1s,4s)-1-hydroxy-4-(methylsulfonyl)cyclohexyl)methyl)-5-(2-(trifluoromethyl)-4-(3,3,3-trifluoropropyl)phenyl)-1H-pyrazole-3-carboxamide]
inhibition at 2 µM [1]: 5%
pIC50: < 5.70

CCn1nc(C(=O)NC[C@]2(O)CC[C@@H](S(C)(=O)=O)CC2)c(C)c1-c1ccc(C[C@@H](C)C(F)(F)F)cc1OC(F)F [Example 142, 5-(2-(Difluoromethoxy)-4-((R)-3,3,3-trifluoro-2-methylpropyl)phenyl)-1-ethyl-N-(((1s,4S)-1-hydroxy-4-(methylsulfonyl)cyclohexyl)methyl)-4-methyl-1H-pyrazole-3-carboxamide]
inhibition at […] (HEK-293T, 0.33 μM compound concentration (footnote *****), read-out: RORγt (FL) Reporter Assay A or B, % inhibition): 87%

CCn1nc(C(=O)NC[C@]2(O)CC[C@@H](S(C)(=O)=O)CC2)c(Cl)c1-c1ccc([C@H](O)C2(C(F)(F)F)CC2)cc1OC(F)F (single isomer, unassigned) [Example 110, 4-Chloro-5-(2-(difluoromethoxy)-4-((S*)-hydroxy(1-(trifluoromethyl)cyclopropyl)methyl)phenyl)-1-ethyl-N-(((1s,4R)-1-hydroxy-4-(methylsulfonyl)cyclohexyl)methyl)-1H-pyrazole-3-carboxamide]
inhibition at 1 µM [1]: 75%

CCn1nc(C(=O)NC[C@]2(O)CC[C@@H](S(C)(=O)=O)CC2)c(Cl)c1-c1ccc([C@@H](O)C(C)(C)C(F)(F)F)cc1OC(F)F (single isomer, unassigned) [Example 108, 4-Chloro-5-(2-(difluoromethoxy)-4-((R*)-3,3,3-trifluoro-1-hydroxy-2,2-dimethylpropyl)phenyl)-1-ethyl-N-(((1s,4S)-1-hydroxy-4-(methylsulfonyl)cyclohexyl)methyl)-1H-pyrazole-3-carboxamide]
inhibition at 3 µM [2]: 92%

[2H]C([2H])([2H])Oc1cc(CC(C)(C)C(F)(F)F)ccc1-c1c(Cl)c(C(=O)NC[C@]2(O)CC[C@@H](S(C)(=O)=O)CC2)nn1CC [Example 192, 4-Chloro-1-ethyl-N-(((1s,4s)-1-hydroxy-4-(methylsulfonyl)cyclohexyl)methyl)-5-(2-(methoxy-d3)-4-(3,3,3-trifluoro-2,2-dimethylpropyl)phenyl)-1H-pyrazole-3-carboxamide]
inhibition at 2 µM [1]: 96%

CCn1nc(C(=O)NC[C@H]2CC[C@H](S(C)(=O)=O)CC2)c(Cl)c1-c1ccc(OC[C@@H]2CC2(F)F)cc1OC (single isomer, unassigned) [Example 210, 4-Chloro-5-(4-(((S*)-2,2-difluorocyclopropyl)methoxy)-2-methoxyphenyl)-1-ethyl-N-(((1r,4R)-4-(methylsulfonyl)cyclohexyl)methyl)-1H-pyrazole-3-carboxamide]
inhibition at 2 µM [1]: 77%

CCOC(=O)[C@]1(CNC(=O)c2nn(CC)c(-c3ccc(CC(C)(C)C(F)(F)F)cc3OC(F)F)c2Cl)CC[C@H](S(C)(=O)=O)CC1 [Example 118, Ethyl (1s*,4s*)-1-((4-chloro-5-(2-(difluoromethoxy)-4-(3,3,3-trifluoro-2,2-dimethylpropyl)phenyl)-1-ethyl-1H-pyrazole-3-carboxamido)methyl)-4-(methylsulfonyl)cyclohexane-1-carboxylate]
inhibition at 2 µM [1]: 103%
pIC50: 8.62

CCn1nc(C(=O)NC[C@]2(O)CC[C@@H](S(C)(=O)=O)CC2)c(Cl)c1-c1ccc([C@@](C)(O)CCC(F)(F)F)cc1OC(F)F (single isomer, unassigned) [Example 102, 4-Chloro-5-(2-(difluoromethoxy)-4-((S*)-5,5,5-trifluoro-2-hydroxypentan-2-yl)phenyl)-1-ethyl-N-(((1s,4R)-1-hydroxy-4-(methylsulfonyl)cyclohexyl)methyl)-1H-pyrazole-3-carboxamide]
inhibition at 3 µM [2]: 85%

CCn1nc(C(=O)NC[C@H]2CC[C@H](S(C)(=O)=O)CC2)c(Cl)c1-c1ccc(OCC2CC2(F)F)cc1OC (some centres unmarked) [Example 209, 4-Chloro-5-(4-((2,2-difluorocyclopropyl)methoxy)-2-methoxyphenyl)-1-ethyl-N-(((1r,4r)-4-(methylsulfonyl)cyclohexyl)methyl)-1H-pyrazole-3-carboxamide]
inhibition at 2 µM [1]: 82%

CCn1nc(C(=O)NC[C@]2(O)CC[C@@H](S(C)(=O)=O)CC2)c(Cl)c1-c1ccc(CC(C)(C)C(F)(F)F)cc1OC [Example 45, 4-Chloro-1-ethyl-N-(((1s,4s)-1-hydroxy-4-(methylsulfonyl)cyclohexyl)methyl)-5-(2-methoxy-4-(3,3,3-trifluoro-2,2-dimethylpropyl)phenyl)-1H-pyrazole-3-carboxamide]
inhibition at 2 µM [1]: 88%

CCn1nc(C(=O)NC[C@H]2CC[C@H](S(C)(=O)=O)CC2)c(Cl)c1-c1ccc(OCC2CC2(F)F)cc1OC (single isomer, unassigned) [Example 211, 4-Chloro-5-(4-(((R*)-2,2-difluorocyclopropyl)methoxy)-2-methoxyphenyl)-1-ethyl-N-(((1r,4R)-4-(methylsulfonyl)cyclohexyl)methyl)-1H-pyrazole-3-carboxamide]
inhibition at 2 µM [1]: 66%

CCn1nc(C(=O)NC[C@]2(N)CC[C@H](S(C)(=O)=O)CC2)c(Cl)c1-c1ccc(CC(C)(C)C(F)(F)F)cc1OC(F)F [Example 20, N-(((1r*,4r*)-1-Amino-4-(methylsulfonyl)cyclohexyl)methyl)-4-chloro-5-(2-(difluoromethoxy)-4-(3,3,3-trifluoro-2,2-dimethylpropyl)phenyl)-1-ethyl-1H-pyrazole-3-carboxamide 2,2,2-trifluoroacetic Acid Salt]
inhibition at 3 µM [2]: 15%

CCn1nc(C(=O)NC[C@]2(O)CC[C@@H](S(C)(=O)=O)CC2)c(Cl)c1-c1ccc(C[C@@H](C)C(F)(F)F)cc1OC [Example 36, 4-Chloro-1-ethyl-N-(((1s,4S)-1-hydroxy-4-(methylsulfonyl)cyclohexyl)methyl)-5-(2-methoxy-4-((R)-3,3,3-trifluoro-2-methylpropyl)phenyl)-1H-pyrazole-3-carboxamide]
inhibition at 2 µM [1]: 101%

CCn1nc(C(=O)NC[C@]2(O)CC[C@@H](S(C)(=O)=O)CC2)c(Cl)c1-c1ccc(C(C)(O)CCC(F)(F)F)cc1OC(F)F (some centres unmarked) [Example 101, 4-Chloro-5-(2-(difluoromethoxy)-4-(5,5,5-trifluoro-2-hydroxypentan-2-yl)phenyl)-1-ethyl-N-(((1s,4s)-1-hydroxy-4-(methylsulfonyl)cyclohexyl)methyl)-1H-pyrazole-3-carboxamide]
inhibition at 3 µM [2]: 115%

CCn1nc(C(=O)NC[C@]2(O)CC[C@@H](S(C)(=O)=O)CC2)c(Cl)c1-c1ccc(C(O)C2(C(F)(F)F)CC2)cc1OC(F)F (some centres unmarked) [Example 109, 4-Chloro-5-(2-(difluoromethoxy)-4-(hydroxy(1-(trifluoromethyl)cyclopropyl)methyl)phenyl)-1-ethyl-N-(((1s,4s)-1-hydroxy-4-(methylsulfonyl)cyclohexyl)methyl)-1H-pyrazole-3-carboxamide]
inhibition at 3 µM [1]: 88%

CCn1nc(C(=O)NC[C@]2(O)CC[C@@H](S(C)(=O)=O)CC2)c(Cl)c1-c1ccc([C@@H](O)C2(C(F)(F)F)CC2)cc1OC(F)F (single isomer, unassigned) [Example 111, 4-Chloro-5-(2-(difluoromethoxy)-4-((R*)-hydroxy(1-(trifluoromethyl)cyclopropyl)methyl)phenyl)-1-ethyl-N-(((1s,4S)-1-hydroxy-4-(methylsulfonyl)cyclohexyl)methyl)-1H-pyrazole-3-carboxamide]
inhibition at 1 µM [1]: 95%

From US10975037B2 (priority 2018, dated 2021)
